Legend:
Cytochrome P450 3A4 = Cytochrome P450 3A4 (Homo sapiens, UniProt P08684); assay: Inhibition of human CYP3A4 in presence of NADPH by luciferase reporter gene assay; format: ADME
Trypanosoma cruzi [1] = assay: Antiprotozoal activity against Trypanosoma cruzi Tulahuen C2C4 amastigotes infected in rat L6 cells after 96 hrs by inverted microscopic analysis; format: functional, organism-based; details: Tulahuen C2C4, L6, 96 h
Trypanosoma cruzi [2] = assay: Antiprotozoal activity against Trypanosoma cruzi CL Brener trypomastigotes infected in BALB/c mouse assessed as reduction in parasitemia at 25 mg/kg, ip bid treated for 4 consecutive days starting at 3 days post infection by bioluminescence assay relative to control; format: functional; design: scale not given: the % may be the effect or the level left
[3] = Cytotoxicity against rat L6 cels assessed as reduction in cell viability after 72 hrs by Alamar Blue dye-based fluorometric analysis; details: L6 cells
[4] = test system: Trypanosoma brucei rhodesiense; assay: Antiprotozoal activity against Trypanosoma brucei rhodesiense STIB900 trypomastigotes after 72 hrs by Alamar Blue dye-based fluorometric analysis; format: functional, organism-based; details: STIB900, 72 h
Trypanosoma cruzi [5] = assay: Potency index, ratio of benznidazole IC50 to compound IC50 for Trypanosoma cruzi Tulahuen C2C4 amastigotes infected in rat L6 cells after 96 hrs by inverted microscopic analysis; format: functional
[6] = Selectivity index, ratio of CC50 for rat L6 cels to IC50 for erythrocytic stage of Plasmodium falciparum K1; format: toxicity; details: L6 cells, read-out: Ratio IC50
[7] = Toxicity in BALB/c mouse infected with Trypanosoma cruzi CL Brener trypomastigotes assessed as hunched posture at 25 mg/kg, ip bid treated for 4 consecutive days starting at 3 days post infection; format: organism-based; details: in vivo, 72 h
[8] = Toxicity in BALB/c mouse infected with Trypanosoma cruzi CL Brener trypomastigotes assessed as lack of grooming at 25 mg/kg, ip bid treated for 4 consecutive days starting at 3 days post infection; format: organism-based; details: in vivo, 72 h
[9] = biological target: Sterol 14-alpha demethylase (Trypanosoma cruzi (strain CL Brener), UniProt Q7Z1V1); assay: Binding affinity to Trypanosoma cruzi CYP51 by UV-vis spectrophotometry
[10] = Toxicity in BALB/c mouse infected with Trypanosoma cruzi CL Brener trypomastigotes assessed as reduced mobility at 25 mg/kg, ip bid treated for 4 consecutive days starting at 3 days post infection; format: organism-based; details: in vivo, 72 h
Cytochrome P450 1A2 = biological target: T1, Cytochrome P450 1A2 (Homo sapiens, UniProt P05177); assay: Inhibition of human CYP1A2 in presence of NADPH by luciferase reporter gene assay; format: ADME
T1 sequence (P05177 whole entry): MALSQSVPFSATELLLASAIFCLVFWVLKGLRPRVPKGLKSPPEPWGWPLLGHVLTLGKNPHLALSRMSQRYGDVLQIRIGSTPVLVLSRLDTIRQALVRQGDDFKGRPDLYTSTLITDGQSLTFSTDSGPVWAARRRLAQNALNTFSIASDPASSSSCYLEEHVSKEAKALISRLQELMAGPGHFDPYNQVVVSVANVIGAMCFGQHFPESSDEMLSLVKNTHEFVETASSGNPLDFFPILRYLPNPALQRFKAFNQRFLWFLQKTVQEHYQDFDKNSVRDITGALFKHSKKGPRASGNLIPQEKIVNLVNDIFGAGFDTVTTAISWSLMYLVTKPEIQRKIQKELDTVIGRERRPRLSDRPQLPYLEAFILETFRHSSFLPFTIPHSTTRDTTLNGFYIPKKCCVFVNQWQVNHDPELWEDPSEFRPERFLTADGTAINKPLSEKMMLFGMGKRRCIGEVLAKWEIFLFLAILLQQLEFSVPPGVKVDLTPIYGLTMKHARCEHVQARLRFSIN

Cytochrome P450 2D6 = Cytochrome P450 2D6 (Homo sapiens, UniProt P10635); assay: Inhibition of human CYP2D6 in presence of NADPH by luciferase reporter gene assay; format: ADME
Plasmodium falciparum = assay: Antiprotozoal activity against erythrocytic stage of Plasmodium falciparum K1 after 48 hrs by [3H]- hypoxanthine incorporation assay; format: functional, organism-based
[11] = Selectivity index, ratio of CC50 for rat L6 cels to IC50 for Leishmania donovani MHOM/ET/67/L82 axenic amastigote; format: toxicity; details: L6 cells, read-out: Ratio IC50
[12] = Toxicity in BALB/c mouse infected with Trypanosoma cruzi CL Brener trypomastigotes assessed as loss of body weight at 25 mg/kg, ip bid treated for 4 consecutive days starting at 3 days post infection; format: organism-based; details: in vivo, 72 h
Leishmania donovani = assay: Antiprotozoal activity against Leishmania donovani MHOM/ET/67/L82 axenic amastigote after 72 hrs by inverted microscopic analysis; format: functional, organism-based; details: MHOM/ET/67/L82, 72 h
CYP1A2 = biological target: T2, CYP1A2 (Homo sapiens, UniProt P05177); assay: Safety index, ratio of IC50 for test compound to IC50 for furafylline for inhibition of human CYP1A2 in presence of NADPH by luciferase reporter gene assay; format: ADME; details: read-out: Ratio IC50
T2 sequence (P05177 whole entry): T1 sequence (P05177 whole entry)

Cytochrome P450 3A4, sequence (P08684 whole entry): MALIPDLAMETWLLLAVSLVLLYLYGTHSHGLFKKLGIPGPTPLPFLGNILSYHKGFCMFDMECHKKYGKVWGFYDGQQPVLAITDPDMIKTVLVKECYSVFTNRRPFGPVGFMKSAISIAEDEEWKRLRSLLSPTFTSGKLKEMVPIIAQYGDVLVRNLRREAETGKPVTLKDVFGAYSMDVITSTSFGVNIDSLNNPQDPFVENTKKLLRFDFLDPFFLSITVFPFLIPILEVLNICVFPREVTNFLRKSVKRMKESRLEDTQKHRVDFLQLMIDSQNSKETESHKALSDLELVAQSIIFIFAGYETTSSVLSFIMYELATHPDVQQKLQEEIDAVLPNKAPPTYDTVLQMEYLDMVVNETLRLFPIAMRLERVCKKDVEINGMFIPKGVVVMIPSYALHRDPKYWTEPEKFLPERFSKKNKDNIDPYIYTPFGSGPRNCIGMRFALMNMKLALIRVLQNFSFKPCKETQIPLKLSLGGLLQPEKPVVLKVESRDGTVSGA
Cytochrome P450 2D6, sequence (P10635 whole entry): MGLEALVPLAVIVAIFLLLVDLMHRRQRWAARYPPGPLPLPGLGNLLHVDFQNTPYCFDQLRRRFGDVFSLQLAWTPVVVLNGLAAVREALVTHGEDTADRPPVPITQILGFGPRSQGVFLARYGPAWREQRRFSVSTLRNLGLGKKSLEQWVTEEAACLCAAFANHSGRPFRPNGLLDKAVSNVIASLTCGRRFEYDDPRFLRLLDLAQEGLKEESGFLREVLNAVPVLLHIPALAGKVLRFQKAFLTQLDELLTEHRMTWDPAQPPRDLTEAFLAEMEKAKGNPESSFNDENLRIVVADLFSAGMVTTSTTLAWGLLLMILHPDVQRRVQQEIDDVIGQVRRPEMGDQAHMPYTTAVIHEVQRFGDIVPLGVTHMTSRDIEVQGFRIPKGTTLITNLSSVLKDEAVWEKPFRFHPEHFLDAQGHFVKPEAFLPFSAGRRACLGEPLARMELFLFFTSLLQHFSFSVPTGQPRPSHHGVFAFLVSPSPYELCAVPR
Sterol 14-alpha demethylase, sequence (Q7Z1V1 whole entry): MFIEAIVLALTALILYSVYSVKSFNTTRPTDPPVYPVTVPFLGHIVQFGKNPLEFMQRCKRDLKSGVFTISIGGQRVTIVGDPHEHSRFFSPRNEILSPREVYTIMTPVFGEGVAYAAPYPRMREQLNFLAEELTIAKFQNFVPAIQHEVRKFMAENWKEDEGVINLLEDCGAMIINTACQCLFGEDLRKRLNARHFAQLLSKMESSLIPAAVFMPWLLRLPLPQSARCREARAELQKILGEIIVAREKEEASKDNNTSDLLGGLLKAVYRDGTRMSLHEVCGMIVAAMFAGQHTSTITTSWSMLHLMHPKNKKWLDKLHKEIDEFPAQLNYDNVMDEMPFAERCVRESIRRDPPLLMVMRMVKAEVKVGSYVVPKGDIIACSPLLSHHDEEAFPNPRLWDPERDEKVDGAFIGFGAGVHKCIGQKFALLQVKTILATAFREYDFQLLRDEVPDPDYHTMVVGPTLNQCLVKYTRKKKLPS

## Clc1ccc(-c2cc(C(c3ccc(Cl)cc3)n3ccnc3)c[nH]2)cc1 (configuration not stated)
Cytochrome P450 3A4
  IC50: 1400 nM
Trypanosoma cruzi [1]
  IC50: 3 nM
Trypanosoma cruzi [2]
  Activity: 99.5%
[3]
  CC50 at 72 h: 6650 nM
[4]
  IC50: 7390 nM
Trypanosoma cruzi [5]
  Ratio IC50: 330 - 825
[6]
  selectivity ratio: 9
[7]
  Activity: Non-Toxic
[8]
  Activity: Non-Toxic
[9]
  Kd: 5500 nM
[10]
  Activity: Non-Toxic
Cytochrome P450 1A2
  IC50: 400 nM
Cytochrome P450 2D6
  IC50: 4000 nM
Plasmodium falciparum
  IC50: 780 nM
[11]
  selectivity ratio: 2
[12]
  Activity: Non-Toxic
Leishmania donovani
  IC50: 3010 nM

## Clc1ccc(-c2c[nH]cc2C(c2ccc(Cl)cc2Cl)n2ccnc2)cc1 (racemic)
Cytochrome P450 3A4
  IC50: 800 nM
Trypanosoma cruzi [1]
  IC50: 35 nM
CYP1A2
  selectivity ratio: 3
Cytochrome P450 1A2
  IC50: 7000 nM
Cytochrome P450 2D6
  IC50: 1300 nM

From ChEMBL document CHEMBL4411312, “Design, Synthesis, and Biological Evaluation of New 1-(Aryl-1 H-pyrrolyl)(phenyl)methyl-1 H-imidazole Derivatives as Antiprotozoal Agents” (J Med Chem, 2019)
